{"source": "patent US10143700B2", "about": "“Nanoparticle formulations for delivering multiple therapeutic agents” (Amrita Vishwa Vidyapeetham University, priority 2013, dated 2018)", "key": {"TfR": {"test_system": "TfR", "test": "Transferrin receptor expression in HepG2 cells by flow cytometry", "assay_type": "cell-based", "experimental": "Transferrin receptor expression and cellular uptake: In the next step, the expression of TfR in HepG2 cells was studied using flow cytometry. […] After creating an iron deficient microenvironment by treating the cells with 100 μM DFO, the number of the TfR-expressing cells increased to ˜89% (FIG. 13C). […] Following that, intracellular uptake of the core-shell nanoparticles in cancer cells was investigated. […] After creating iron-deficient microenvironment, the uptake was further increased to ˜94% (FIG. 13G) due to the increase in the number of TfRexpressing cells. Upon addition of iron-loaded transferrin, the uptake was dropped to ˜69% due to the saturation of TfR expression in these cells (FIG. 13H)."}, "HepG2 cells": {"test_system": "HepG2 cells", "test": "Annexin V/PI apoptosis assay (confocal imaging and flow cytometry)", "assay_type": "cell-based", "conditions": "for apoptosis (apoptotic cells by flow cytometry): 5 μM sorafenib and/or 0.5 μM Dox", "experimental": "Apoptosis studies: In the next step, the mode of cell death using Annexin V/PI apoptosis assay was investigated. […] The apoptotic cells using flow cytometry were also quantified. […] Even after combining both the drugs (5 μM sorafenib (5S) with 0.5 μM Dox (0.5D)), a maximum of only ˜60% apoptosis was registered (FIG. 15D). In contrast, as separate nanoformulations, the nano-shell (containing 5 μM sorafenib, (5AST)) (FIG. 15F), and the nano-core (containing 0.5 μM Dox, (0.5PD)) (FIG. 15G) have shown slight improvement in apoptosis (˜39% by shell, and ˜61% by core). After combining the two in a core-shell targeted fashion, excellent apoptosis was registered in ˜91% cells (FIG. 15H)."}}}
{"compound": "CC(=O)N(O)CCCCCNC(=O)CCC(=O)N(O)CCCCCNC(=O)CCC(=O)N(O)CCCCCN", "note": "[DFO]", "values": [{"measurement": "number of TfR-expressing cells", "setting": "TfR; HepG2 cells treated with 100 μM DFO (iron deficient microenvironment), ~76% before iron chelation", "value": "~89", "unit": "%"}, {"measurement": "viability of TfR overexpressing cells", "setting": "HepG2 cells; pretreatment with 100 μM DFO, FIG. 15E", "value": "did not affect the viability"}]}
{"compound": "COc1cccc2c1C(=O)c1c(O)c3c(c(O)c1C2=O)C[C@@](O)(C(=O)CO)C[C@@H]3O[C@H]1C[C@H](N)[C@H](O)[C@H](C)O1", "note": "[Dox, doxorubicin]", "values": [{"measurement": "apoptosis (apoptotic cells by flow cytometry)", "setting": "HepG2 cells", "value": "~53", "unit": "%"}]}
{"compound": "CNC(=O)c1cc(Oc2ccc(NC(=O)Nc3ccc(Cl)c(C(F)(F)F)c3)cc2)ccn1", "note": "[sorafenib]", "values": [{"measurement": "apoptosis (apoptotic cells by flow cytometry)", "setting": "HepG2 cells", "value": "~38", "unit": "%"}]}
{"compound": "holotransferrin: iron-loaded transferrin", "values": [{"measurement": "number of TfR-expressing cells", "setting": "TfR; HepG2 cells, upon addition of iron-loaded transferrin (holotransferrin)", "value": "~42", "unit": "%"}]}
